{
  "source": "paper PMC8032668",
  "about": "“Evaluation of carboxyfluorescein-labeled 7-methylguanine nucleotides as probes for studying cap-binding proteins by fluorescence anisotropy” (Scientific Reports, 2021)",
  "key": {"eIF4E": {"tested_on": "eIF4E", "set-up": "method as in PMID 22316555", "conditions": "cited from earlier work"}, "DcpS": {"biological_target": "T1, DcpS (Homo sapiens, UniProt Q96C86)", "T1 construct": "His tag; made in house; host or cells: E. coli BL21(DE3) RIL", "T1 sequence (Q96C86 1-337)": "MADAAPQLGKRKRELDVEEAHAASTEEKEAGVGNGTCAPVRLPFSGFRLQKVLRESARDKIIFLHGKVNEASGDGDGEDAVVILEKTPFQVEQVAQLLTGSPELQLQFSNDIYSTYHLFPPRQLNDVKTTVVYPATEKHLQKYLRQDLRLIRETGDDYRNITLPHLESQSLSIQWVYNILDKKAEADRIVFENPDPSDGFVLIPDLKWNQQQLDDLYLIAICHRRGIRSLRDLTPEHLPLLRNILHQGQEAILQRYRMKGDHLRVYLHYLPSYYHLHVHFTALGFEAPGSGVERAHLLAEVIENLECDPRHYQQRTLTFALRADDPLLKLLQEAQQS", "experiment": "FA screening of in-house library, 2i:DcpS system", "assay_type": "binding", "conditions": "1 nM 2i, 25 nM DcpS, 1.5 µM inhibitor", "method": "The Z’ factor was determined under conditions optimized for the competition assay. The Z’ value exceeded 0.8 for incubation times up to 1 h, making the assay suitable for screening experiments (Table 5). A screening experiment was then performed using the same compound library as that used for eIF4E screening. The results highlighted the impact of the triphosphate bridge modification on the affinity for the protein. […] The FA method also enabled the identification of unstable compounds, e.g., hydrozylable ligands for which determination of affinity is problematic (as observed by FA signal changes during the experiment; Fig. 7).\nTo evaluate the quality of the assay, the Z’ factor was determined for several protein-probe combinations. The assay was performed on 96-well microplates, where half of the samples were negative controls and the other half were positive controls.\nFor the screening experiments a small in-house library containing 21 ligands was used. Experiments were conducted in the same manner as Z’ factor determination, with exception that the ligand concentration was modified (eIF4E screening conditions: 1 nM 1e, 100 nM eIF4E, 750 nM ligand, DcpS screening conditions: 1 nM 2i, 25 nM DcpS, 1.5 µM ligand). For eIF4E screening experiment, the 1e:eIF4E system was used, for DcpS screening 2i:DcpS system was used."}},
  "data": [
    {"smiles": "C[n+]1cn([C@@H]2O[C@H](COP(=O)([O-])NP(=O)([O-])OP(=O)([O-])OP(=O)([O-])OC[C@H]3O[C@@H](n4cnc5c(=O)[nH]c(N)nc54)[C@H](O)[C@@H]3O)[C@@H](O)[C@H]2O)c2nc(N)[nH]c(=O)c21.[Na+].[Na+].[Na+]", "note": "[m^7GpNHpppG]", "values": [
      {"measurement": "association constant KAS", "setting": "eIF4E", "value": "112.3 ± 1.8", "unit": "µM⁻¹"},
      {"measurement": "inhibitory potency in DcpS screening", "setting": "DcpS", "value": "strong DcpS inhibitors"}
    ]}
  ]
}
